One assay relates to NFκB. Briefly: NFκB luciferase reporter assay in TNF-α stimulated A549 cells (E-selectin promoter). Particulars: Homo sapiens; TNF-α stimulated A549 cells, E-selectin promoter luciferase; % inhibition or IC50 in μM, given as class symbols; read-out: NFκB inh. It is filed as cell-based. On the procedure: A549 cells were stably transfected with an E-selectin promoter containing three NFκB binding sites driving luciferase expression. For the assay, 5×10^4 cells were incubated in 96 well round bottom plates overnight in 100 μL of 10% FBS/RPMI medium at 37° C. in a 5% CO2 atmosphere. The following morning the medium was removed and 90 μL of a 1% DMSO solution of test compound solution was added and the plates incubated for 1 hour. 10 μL of TNF-α was added at its EC50 (normally 6 ng/mL FAC) to each well and the plate incubated for 5 hours. 100 μL of luciferase buffer was added, and after 10 minutes luminescence was read on a Wallac Victor 1420 Multilabel Counter. The data obtained from the Wallac Victor was converted into % inhibition data or IC50 measured in μM.
On the technique in general: In a reporter assay the amount or activity of a reporter protein is the signal.

The test system of a further assay is A549 cells. Briefly: Inhibition of TNF-α induced apoptosis in A549 cells (crystal violet). The class given is cell-based. The following applies: Homo sapiens; inhibition of TNF-α induced apoptosis in A549 cells; percent inhibition at 20 μM or IC50 in μM, given as class symbols; read-out: Apopt inh. On the procedure: The protocol used for determining inhibition of apoptosis in A549 cells was adopted from a system previously described (K. Last-Barney et al., J. of Immunology 141:527-530, 1988). Briefly, 10^5 cells in 200 μL 10% FBS/RPMI antibiotic containing culture medium were plated into 96 well round bottom culture plates and allowed to adhere for 6 hours at 37° C. in a 5% CO2 atmosphere. The media was removed and 100 μL of RPMI+1 μg/mL actinomycin-D was added to each well, followed by 90 μL of test compound solution in 1% DMSO. This was incubated for 1 hour 10 AL TNF-α was added at its EC50 (normally 1 ng/mL FAC) and the plates incubated for 18 hours. The media was aspirated from the plates and 100 μL of 0.5% crystal violet in 20% methanol was added. After 10 minutes the plates were rinsed with water to remove excess stain, air dried, and read on a Spectramax at a wavelength of 590 nm. The data obtained from the Spectramax was converted into percent inhibition data at a concentration of 20 μM or IC50 measured in μM.

Here are results for 21 molecules from US6906046B2 (Celltech R & D Inc., priority 2000, dated 2005).

With `CCCOC(=O)[C@@H]1C2C(=O)CC(c3ccc(O)cc32)[C@H]1C(=O)OCCC12CC3CC(CC(C3)C1)C2` (stereo partly drawn) [Example 108], in the assay with NFκB, the IC50 was in the range of 10 to 50 µM.

With `CCCOC(=O)[C@H]1[C@H](C(=O)OCC[Si](C)(C)C)C2CC(N(C)C(C)=O)[C@H]1c1cc(OC(C)=O)ccc12` (stereo partly drawn) [Example 92], the IC50 in the assay with NFκB lay within 10 to 50 µM.

Take `COc1ccc(COC(=O)[C@H]2[C@H](C(=O)OCC[Si](C)(C)C)C3CC(O)[C@H]2c2cc(O)ccc23)c(OC)c1` (stereo partly drawn) [Example 96]: in the assay on A549 cells, the IC50 was under 10 µM.

As to `CCCOC(=O)[C@H]1[C@H](C(=O)OCC[Si](C)(C)C)C2CC(C)(O)[C@H]1c1cc(O)ccc12` (stereo partly drawn) [Example 99], the IC50 in the assay on NFκB was 10 to 50 µM.

`CCCOC(=O)[C@H]1[C@H](C(=O)OCC[Si](C)(C)C)C2C/C(=N\NC(=S)NC)[C@H]1c1cc(O)ccc12` [Example 81]: the IC50 in the assay on A549 cells was under 10 µM.

Consider `CCCOC(=O)[C@@H]1C2C(=O)CC(c3ccc(O)cc32)[C@H]1C(=O)OCCC[Si](C)(C)C` (stereo partly drawn) [Example 109], for which the IC50 in the assay on NFκB lay in the range of 10 to 50 µM.

With `C=CCOC(=O)c1ccc(COc2ccc3c(c2)[C@@H]2C(=O)CC3[C@@H](C(=O)N(C)CC(=O)NCc3c(OC)cc(OC)cc3OC)[C@H]2C(=O)OCC[Si](C)(C)C)cc1` [Example 110], in the assay on A549 cells, the inhibition at 20 µM lay within 6 to 64%.

For `CCCNC1CC2c3ccc(O)cc3[C@H]1[C@@H](C(=O)OCCC)[C@@H]2C(=O)OCC[Si](C)(C)C` (stereo partly drawn) [Example 85], the IC50 with NFκB lay in the range of 10 to 50 µM.

With `CCCOC(=O)[C@H]1[C@H](C(=O)OCCC(C)(C)C)C2CC(=O)[C@H]1c1cc(O)ccc12` [Example 107], the IC50 in the assay on NFκB was in the range of 10 to 50 µM.

As to `CCCOC(=O)[C@H]1[C@H](C(=O)OCC[Si](C)(C)C)C2C/C(=N\OCc3cccc(F)c3)[C@H]1c1cc(O)ccc12` (racemic) [Example 72, 11-(3-Fluoro-benzyloxyimino)-4-hydroxy-tricyclo[6.2.2.0^2,7]dodeca-2(7),3,5-triene-9,10-dicarboxylic acid 10-propyl ester 9-(2-trimethylsilanyl-ethyl) ester], the IC50 in the assay on A549 cells was under 10 µM.

As to `CCCOC(=O)[C@H]1[C@H](C(=O)OCC[Si](C)(C)C)C2CC(NC)[C@H]1c1cc(O)ccc12` (stereo partly drawn) [Example 86], in the assay on NFκB, the IC50 lay within 10 to 50 µM.

As to `CCCOC(=O)[C@H]1[C@H](C(=O)OCC[Si](C)(C)C)C2CC(N(C)C(C)=O)[C@H]1c1cc(O)ccc12` (stereo partly drawn) [Example 94], the IC50 with NFκB was in the range of 10 to 50 µM.

With `CCCOC(=O)[C@H]1[C@H](C(=O)OCC[Si](C)(C)C)C2CC(O)(CO)[C@H]1c1cc(O)ccc12` (stereo partly drawn) [Example 102], the inhibition at 20 µM in the assay with A549 cells lay within 6 to 64%.

Take `CCCOC(=O)[C@H]1[C@H](C(=O)OCC[Si](C)(C)C)C2C/C(=N\OCC(=O)N3CCN(c4ccccc4)CC3)[C@H]1c1cc(O)ccc12` (stereo in doubt) [Example 73]: the IC50 with NFκB is 10 to 50 µM.

Consider `CCCOC(=O)[C@H]1[C@H](C(=O)OCC[Si](C)(C)C)C2CC(N(Cc3ccc(C)cc3)C(C)=O)[C@H]1c1cc(O)ccc12` (stereo partly drawn) [Example 91], for which the IC50 with NFκB lay in the range of 10 to 50 µM.

Turning to `CCCOC(=O)[C@H]1[C@H](C(=O)OCC[Si](C)(C)C)C2C/C(=N\NS(=O)(=O)c3ccccc3)[C@H]1c1cc(O)ccc12` [Example 58], in the assay on A549 cells, the IC50 was in the range of 10 to 50 µM.

In the case of `C=C1CC2c3ccc(O)cc3[C@H]1[C@@H](C(=O)OCCC)[C@@H]2C(=O)OCC[Si](C)(C)C` [Example 101], the IC50 with A549 cells is under 10 µM.

As for `CCCOC(=O)[C@H]1[C@H](C(=O)OCC[Si](C)(C)C)C2CC(=CC(=O)OCC)[C@H]1c1cc(O)ccc12` [Example 98], the inhibition at 20 µM with A549 cells lay in the range of 6 to 64%.

In the case of `COc1ccc(COC(=O)[C@H]2[C@H](C(=O)OCC[Si](C)(C)C)C3CC(O)[C@H]2c2cc(O)ccc23)c(OC)c1` (stereo partly drawn) [Example 95], the inhibition at 20 µM in the assay with A549 cells lay within 6 to 64%.

In the case of `CCCOC(=O)[C@H]1[C@H](C(=O)OCC[Si](C)(C)C)C2C/C(=N/OCC(=O)N3CCN(c4ccccc4)CC3)[C@H]1c1cc(O)ccc12` [Example 74], the IC50 in the assay with NFκB is 10 to 50 µM.

As for `CCCOC(=O)[C@H]1[C@H](C(=O)OCCS(=O)(=O)c2ccc(C)cc2)C2CC(=O)[C@H]1c1cc(O)ccc12` [Example 106], the IC50 in the assay with NFκB was 10 to 50 µM.
